Among the data in ChEMBL document CHEMBL1127315, “Substituted O6-benzylguanine derivatives and their inactivation of human O6-alkylguanine-DNA alkyltransferase” (J Med Chem, 1994) are ED50 values, retold here.

Molecules are shown by their SMILES. Active and inactive are the calls of the source. No cut-off for these calls is given here.

Test [1] has as its target T1, Methylated-DNA--protein-cysteine methyltransferase (Homo sapiens) (UniProt P16455).
T1 sequence (whole entry): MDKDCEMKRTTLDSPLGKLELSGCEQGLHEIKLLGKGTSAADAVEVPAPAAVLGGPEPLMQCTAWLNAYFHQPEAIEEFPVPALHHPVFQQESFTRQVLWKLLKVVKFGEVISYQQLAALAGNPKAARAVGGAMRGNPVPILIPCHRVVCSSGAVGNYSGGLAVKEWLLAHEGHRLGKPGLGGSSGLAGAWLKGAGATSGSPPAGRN
As to conditions: HT-29.

For test [2], the target named is T1, Methylated-DNA--protein-cysteine methyltransferase (Homo sapiens). As to conditions: HT-29. This is another data set of the same source.
The target is the same in test [3]. Kind of test: Tested for the effective dose required to produce 50 percent inactivation of O6-alkylguanine-DNA alkyltransferase in HT-29 cell free extract; Inactive.

Consider `CC12CCC(=O)C=C1CCC1C2CCC2(C)C(OC(=O)Cn3cnc4c(OCc5ccccc5)nc(N)nc43)CCC12` (stereo not given), for which the ED50 is 5000 nM in test [1] and 500 nM in test [2]. The corresponding values for `C[C@]12CC[C@H]3[C@@H](CCC4CC(=O)CC[C@@]43C)[C@@H]1CC[C@@H]2OC(=O)Cn1cnc2c(OCc3ccccc3)nc(N)nc21` (stereo not given in full) are 4000 nM and 500 nM. Turning to `Nc1nc(Oc2ccccc2)c2[nH]cnc2n1`, in test [3], the ED50 result is “inactive”.
